Test results as given in paper PMC12736255, “Reinvestigating Pyrrol-2-One-Based Compounds: From Antimicrobial Agents to Promising Antitumor Candidates” (Pharmaceuticals, 2025).

Key:
[1] = tested on: human gingival fibroblasts (HGF); experiment: CellTiter-Glo 2.0 cytotoxicity, normal fibroblasts; format: cell-based; settings: 50 µM, 24 h
Description: (§1) Cytotoxicity of compounds was assessed using the CellTiter-Glo® 2.0 Assay (Promega, Madison, WI, USA) on human gingival fibroblasts (HGF), osteosarcoma (HOS and MG-63) and glioblastoma (LN-229 and U-118MG) cells, according to the manufacturer’s instructions. HGF, HOS, MG-63 and U-118MG cells were purchased from Cytion GmbH, Eppelheim, Germany, and LN-229 (CRL-2611) from the American Type Culture Collection (ATCC), Manassas, VA, USA. Cells were seeded (50,000 cells/mL—HGF, 100,000 cells/mL—tumor cells) into 96-well opaque white tissue culture-treated plates and allowed to adhere overnight in αMEM medium with 10% fetal bovine serum and 1% antibiotic-antimycotic (all from PAN—Biotech GmbH, Aidenbach, Germany). Cells were incubated with compounds (10 or 50 µM) for 24 h, then CellTiter-Glo® reagent was added and luminescence was recorded using a FLUOstar® Omega microplate reader (BMG LABTECH, Ortenberg, Germany). The experiments were carried out in triplicate, and the viability of treated cells was expressed as a percentage of the viability of control cells (untreated). Data were represented as means ± standard deviations. Stock solutions of compounds were prepared in DMSO, then diluted in complete cell culture media. […] Data were analyzed with independent two-tailed (Student’s) t-test, considering p < 0.05 statistically significant.

LN-229 = experiment: CellTiter-Glo 2.0 cytotoxicity, glioblastoma; format: cell-based, human; settings: LN-229, 24 h
Description: as §1

U-118MG = experiment: CellTiter-Glo 2.0 cytotoxicity, glioblastoma; format: cell-based, human; settings: 50 µM, 24 h
Description: as §1

[2] = tested on: osteosarcoma (HOS and MG-63) cells; experiment: CellTiter-Glo 2.0 cytotoxicity, osteosarcoma; format: cell-based, human; settings: osteosarcoma cell lines, 10 and 50 µM, 24 h
Description: as §1

HL-60(TB) = experiment: NCI-60 5-dose screen; format: cell-based, human
MOLT-4 = experiment: NCI-60 5-dose screen; format: cell-based, human
NCI-H226 = experiment: NCI-60 5-dose screen; format: cell-based, human
A549/ATCC = experiment: NCI-60 5-dose screen; format: cell-based, human
SW-620 = experiment: NCI-60 5-dose screen; format: cell-based, human
KM12 = experiment: NCI-60 5-dose screen; format: cell-based, human
COLO 205 = experiment: NCI-60 5-dose screen; format: cell-based, human
SNB-75 = experiment: NCI-60 5-dose screen; format: cell-based, human
U251 = experiment: NCI-60 5-dose screen; format: cell-based, human
SK-MEL-2 = experiment: NCI-60 5-dose screen; format: cell-based, human
LOX IMVI = experiment: NCI-60 5-dose screen; format: cell-based, human
OVCAR-4 = experiment: NCI-60 5-dose screen; format: cell-based, human
IGROV1 = experiment: NCI-60 5-dose screen; format: cell-based, human
SK-OV-3 = experiment: NCI-60 5-dose screen; format: cell-based, human
CAKI-1 = experiment: NCI-60 5-dose screen; format: cell-based, human
A498 = experiment: NCI-60 5-dose screen; format: cell-based, human
ACHN = experiment: NCI-60 5-dose screen; format: cell-based, human
MDA-MB-231/ATCC = experiment: NCI-60 5-dose screen; format: cell-based, human
HS 578T = experiment: NCI-60 5-dose screen; format: cell-based, human
MDA-MB-468 = experiment: NCI-60 5-dose screen; format: cell-based, human
PC-3 = experiment: NCI-60 5-dose screen; format: cell-based, human
[3] = CellTiter-Glo 2.0 cytotoxicity, normal fibroblasts; format: cell-based, human; settings: human, human gingival fibroblasts (HGF), read-out: cell viability
Description: as §1

[4] = Homo sapiens, read-out: LC50 (the source's name)

With `O=C1C(Nc2ccc(I)cc2)=CC(c2ccc(O)c(O)c2)N1c1ccc(I)cc1` (stereo not shown) [3h] the “cytotoxicity (activity in words)” value [1] was “acute cytotoxicity”, the “cytotoxicity (activity in words)” value (LN-229) was “ineffective” and the “cytotoxicity (activity in words)” value (U-118MG) was “moderate activity”. The “cytotoxicity (activity in words)” value [2] was “notable activity”, the TGI (HL-60(TB)) was 4.28 µM and the GI50 (HL-60(TB); Homo sapiens) was 2.19 µM. The CC50 (HL-60(TB); [4]) was 8.38 µM, the TGI (MOLT-4) was 4.17 µM and the GI50 (MOLT-4; Homo sapiens) was 2.08 µM. The CC50 (MOLT-4; [4]) was 8.35 µM, the TGI (NCI-H226) was greater than 100 µM and the GI50 (NCI-H226; Homo sapiens) was greater than 100 µM. For the same compound, the CC50 (NCI-H226; [4]) was greater than 100 µM, the TGI (A549/ATCC) was greater than 100 µM and the GI50 (A549/ATCC; Homo sapiens) was greater than 100 µM. For the same compound, the CC50 (A549/ATCC; [4]) was greater than 100 µM, the TGI (SW-620) was greater than 100 µM and the GI50 (SW-620; Homo sapiens) was greater than 100 µM. The CC50 (SW-620; [4]) was greater than 100 µM, the TGI (KM12) was greater than 100 µM and the GI50 (KM12; Homo sapiens) was 5.22 µM. The CC50 (KM12; [4]) was greater than 100 µM, the TGI (COLO 205) was greater than 100 µM and the GI50 (COLO 205; Homo sapiens) was 6.65 µM. The CC50 (COLO 205; [4]) was greater than 100 µM, the TGI (SNB-75) was greater than 100 µM and the GI50 (SNB-75; Homo sapiens) was greater than 100 µM. For the same compound, the CC50 (SNB-75; [4]) was greater than 100 µM, the TGI (U251) was greater than 100 µM and the GI50 (U251; Homo sapiens, U-251) was greater than 100 µM. For the same compound, the LC50 (50% lethal concentration) (U251; Homo sapiens, U-251) was greater than 100 µM, the TGI (SK-MEL-2) was greater than 100 µM and the GI50 (SK-MEL-2; Homo sapiens) was 6.64 µM. It also gave a CC50 (SK-MEL-2; [4]) greater than 100 µM, a TGI (LOX IMVI) greater than 100 µM and a GI50 (LOX IMVI; Homo sapiens) greater than 100 µM. It also gave a CC50 (LOX IMVI; [4]) greater than 100 µM, a TGI (OVCAR-4) greater than 100 µM and a GI50 (OVCAR-4; Homo sapiens) of 3.27 µM. It also gave a CC50 (OVCAR-4; [4]) greater than 100 µM, a TGI (IGROV1) greater than 100 µM and a GI50 (IGROV1; Homo sapiens, IGROV-1) greater than 100 µM. It also gave a CC50 (IGROV1; Homo sapiens, IGROV-1, read-out: LC50 (the source's name)) greater than 100 µM, a TGI (SK-OV-3) greater than 100 µM and a GI50 (SK-OV-3; Homo sapiens) of 7.6 µM. For the same compound, the CC50 (SK-OV-3; [4]) was greater than 100 µM, the TGI (CAKI-1) was greater than 100 µM and the GI50 (CAKI-1; Homo sapiens) was greater than 100 µM. It also gave a CC50 (CAKI-1; [4]) greater than 100 µM, a TGI (A498) greater than 100 µM and a GI50 (A498; Homo sapiens) greater than 100 µM. It also gave a CC50 (A498; [4]) greater than 100 µM, a TGI (ACHN) greater than 100 µM and a GI50 (ACHN; Homo sapiens) greater than 100 µM. For the same compound, the CC50 (ACHN; [4]) was greater than 100 µM, the TGI (MDA-MB-231/ATCC) was greater than 100 µM and the GI50 (MDA-MB-231/ATCC; Homo sapiens) was greater than 100 µM. It also gave a CC50 (MDA-MB-231/ATCC; [4]) greater than 100 µM, a TGI (HS 578T) greater than 100 µM and a GI50 (HS 578T; Homo sapiens) of 6.65 µM. It also gave a CC50 (HS 578T; [4]) greater than 100 µM, a TGI (MDA-MB-468) greater than 100 µM and a GI50 (MDA-MB-468; Homo sapiens) of 3.1 µM. For the same compound, the CC50 (MDA-MB-468; [4]) was greater than 100 µM, the TGI (PC-3) was greater than 100 µM and the GI50 (PC-3; Homo sapiens) was 8.83 µM. It also gave a CC50 (PC-3; [4]) greater than 100 µM.
For `COc1cc(OC)c(C2C=C(Nc3ccc(I)cc3)C(=O)N2c2ccc(I)cc2)cc1OC` (stereo not shown) [3k], the viability at 24 h, 50 µM [3] was 64%, the “cytotoxicity (activity in words)” value (LN-229) was “ineffective” and the “cytotoxicity (activity in words)” value (U-118MG) was “moderate activity”.
